Data: US20070003585A1, “Topical skin treating compositions” (STIEFEL LABORATORIES, INC., priority 2005, published 2007)
Where two headings read alike, the source gives them in different places.

Legend:
[1] = Storage stability of composition containing 2.15% of benzoyl peroxide, […] of tazarotene, and […] of clindamycin (Example 8); format: physicochemical; settings: Example 8 composition, initial […], 6 months
[2] = Storage stability of composition containing 2.02% of benzoyl peroxide, […] of tazarotene, and […] of clindamycin (Example 9); format: physicochemical; settings: Example 9 composition, initial […]
[3] = Storage stability of composition containing 0.209% of tazarotene and 2.13% of clindamycin (Example 14); format: physicochemical; settings: Example 14 composition, initial 0.209%
[4] = Storage stability of composition containing […] of tazarotene and […] of clindamycin (Example 16); format: physicochemical; settings: Example 16 composition, initial […], 6 months
[5] = Storage stability of composition containing 2.02% of benzoyl peroxide and 0.099% of tazarotene (Example 17); format: physicochemical; settings: Example 17 composition, initial […]
From the text: (§1) The results are as follows:

[6] = Storage stability of composition containing 5.18% of benzoyl peroxide and 0.099% of tazarotene (Example 18); format: physicochemical; settings: Example 18 composition, initial […]
From the text: as §1

[7] = Example 6 composition, initial […]
[8] = Example 7 composition, initial […]
[9] = Example 11 composition, initial […]
[10] = Example 12 composition, initial […]
[11] = Example 13 composition, initial […]
[12] = Example 15 composition, initial 0.109%

For `CCOC(=O)c1ccc(C#Cc2ccc3c(c2)C(C)(C)CCS3)nc1` [Tazarotene], the “Tazarotene (as % w/w)” value ([1]; 6° C.) was 0.099 % w/w, the “Tazarotene (as % w/w)” value ([1]; 25° C.) was 0.097 % w/w and the “Tazarotene (as % w/w)” value ([1]; 30° C.) was 0.079 % w/w. The “Tazarotene (as % w/w)” value ([1]; 40° C.) was 0.057 % w/w, the “Tazarotene (as % w/w)” value ([2]; 6 months, 6° C.) was 0.104 % w/w and the “Tazarotene (as % w/w)” value ([2]; 6 months, 25° C.) was 0.089 % w/w. For the same molecule, the “Tazarotene (as % w/w)” value ([2]; 6 months, 30° C.) was 0.089 % w/w, the “Tazarotene (as % w/w)” value ([2]; 6 months, 40° C.) was 0.003 % w/w and the “Tazarotene (as % w/w)” value ([2]; 90 days, 6° C.) was 0.103 % w/w. For the same molecule, the “Tazarotene (as % w/w)” value ([2]; 90 days, 25° C.) was 0.092 % w/w, the “Tazarotene (as % w/w)” value ([2]; 90 days, 30° C.) was 0.090 % w/w and the “Tazarotene (as % w/w)” value ([2]; 90 days, 40° C.) was 0.071 % w/w. The “Tazarotene (as % w/w)” value ([3]; 4 weeks, 25° C.) was 0.208 % w/w, the “Tazarotene (as % w/w)” value ([3]; 4 weeks, 30° C.) was 0.208 % w/w and the “Tazarotene (as % w/w)” value ([3]; 4 weeks, 40° C.) was 0.205 % w/w. For the same molecule, the “Tazarotene (as % w/w)” value ([3]; 6 months, 25° C.) was 0.206 % w/w, the “Tazarotene (as % w/w)” value ([3]; 6 months, 30° C.) was 0.206 % w/w and the “Tazarotene (as % w/w)” value ([3]; 6 months, 40° C.) was 0.205 % w/w. The “Tazarotene (as % w/w)” value ([3]; 90 days, 25° C.) was 0.204 % w/w, the “Tazarotene (as % w/w)” value ([3]; 90 days, 30° C.) was 0.208 % w/w and the “Tazarotene (as % w/w)” value ([3]; 90 days, 40° C.) was 0.208 % w/w. The “Tazarotene (as % w/w)” value ([4]; 6° C.) was 0.101 % w/w, the “Tazarotene (as % w/w)” value ([4]; 25° C.) was 0.102 % w/w and the “Tazarotene (as % w/w)” value ([4]; 30° C.) was 0.104 % w/w. For the same molecule, the “Tazarotene (as % w/w)” value ([4]; 40° C.) was 0.103 % w/w, the “Tazarotene (as % w/w)” value ([5]; 6 months, 6° C.) was 0.108 % w/w and the “Tazarotene (as % w/w)” value ([5]; 6 months, 25° C.) was 0.081 % w/w. For the same molecule, the “Tazarotene (as % w/w)” value ([5]; 6 months, 30° C.) was 0.070 % w/w, the “Tazarotene (as % w/w)” value ([5]; 6 months, 40° C.) was 0.009 % w/w and the “Tazarotene (as % w/w)” value ([5]; 90 days, 6° C.) was 0.106 % w/w. The “Tazarotene (as % w/w)” value ([5]; 90 days, 25° C.) was 0.088 % w/w, the “Tazarotene (as % w/w)” value ([5]; 90 days, 30° C.) was 0.085 % w/w and the “Tazarotene (as % w/w)” value ([5]; 90 days, 40° C.) was 0.044 % w/w. The “Tazarotene (as % w/w)” value ([6]; 6 months, 6° C.) was 0.106 % w/w, the “Tazarotene (as % w/w)” value ([6]; 6 months, 25° C.) was 0.088 % w/w and the “Tazarotene (as % w/w)” value ([6]; 6 months, 30° C.) was 0.083 % w/w. The “Tazarotene (as % w/w)” value ([6]; 6 months, 40° C.) was 0.004 % w/w, the “Tazarotene (as % w/w)” value ([6]; 90 days, 6° C.) was 0.103 % w/w and the “Tazarotene (as % w/w)” value ([6]; 90 days, 25° C.) was 0.093 % w/w. The “Tazarotene (as % w/w)” value ([6]; 90 days, 30° C.) was 0.087 % w/w, the “Tazarotene (as % w/w)” value ([6]; 90 days, 40° C.) was 0.051 % w/w and the “Tazarotene (as % w/w)” value ([7]; 2 weeks, 25° C.) was 0.088 % w/w. The “Tazarotene (as % w/w)” value ([7]; 2 weeks, 30° C.) was 0.085 % w/w, the “Tazarotene (as % w/w)” value ([7]; 2 weeks, 40° C.) was 0.081 % w/w and the “Tazarotene (as % w/w)” value ([7]; 90 days, 6° C.) was 0.094 % w/w. The “Tazarotene (as % w/w)” value ([7]; 90 days, 25° C.) was 0.090 % w/w, the “Tazarotene (as % w/w)” value ([7]; 90 days, 30° C.) was 0.085 % w/w and the “Tazarotene (as % w/w)” value ([7]; 90 days, 40° C.) was 0.078 % w/w. The “Tazarotene (as % w/w)” value ([8]; 2 weeks, 6° C.) was 0.104 % w/w, the “Tazarotene (as % w/w)” value ([8]; 2 weeks, 25° C.) was 0.098 % w/w and the “Tazarotene (as % w/w)” value ([8]; 2 weeks, 30° C.) was 0.088 % w/w. For the same molecule, the “Tazarotene (as % w/w)” value ([8]; 2 weeks, 40° C.) was 0.080 % w/w, the “Tazarotene (as % w/w)” value ([8]; 6 months, 6° C.) was 0.106 % w/w and the “Tazarotene (as % w/w)” value ([8]; 6 months, 25° C.) was 0.090 % w/w. For the same molecule, the “Tazarotene (as % w/w)” value ([8]; 6 months, 30° C.) was 0.082 % w/w, the “Tazarotene (as % w/w)” value ([8]; 6 months, 40° C.) was 0.046 % w/w and the “Tazarotene (as % w/w)” value ([9]; 2 weeks, 6° C.) was 0.106 % w/w. The “Tazarotene (as % w/w)” value ([9]; 2 weeks, 25° C.) was 0.098 % w/w, the “Tazarotene (as % w/w)” value ([9]; 2 weeks, 40° C.) was 0.089 % w/w and the “Tazarotene (as % w/w)” value ([9]; 6 months, 6° C.) was 0.107 % w/w. The “Tazarotene (as % w/w)” value ([9]; 6 months, 25° C.) was 0.093 % w/w, the “Tazarotene (as % w/w)” value ([9]; 6 months, 40° C.) was 0.014 % w/w and the “Tazarotene (as % w/w)” value ([9]; 30 days, 6° C.) was 0.105 % w/w. For the same molecule, the “Tazarotene (as % w/w)” value ([9]; 30 days, 25° C.) was 0.094 % w/w, the “Tazarotene (as % w/w)” value ([9]; 30 days, 40° C.) was 0.084 % w/w and the “Tazarotene (as % w/w)” value ([9]; 90 days, 6° C.) was 0.106 % w/w. The “Tazarotene (as % w/w)” value ([9]; 90 days, 25° C.) was 0.093 % w/w, the “Tazarotene (as % w/w)” value ([9]; 90 days, 40° C.) was 0.086 % w/w and the “Tazarotene (as % w/w)” value ([10]; 2 weeks, 6° C.) was 0.099 % w/w. The “Tazarotene (as % w/w)” value ([10]; 2 weeks, 25° C.) was 0.090 % w/w, the “Tazarotene (as % w/w)” value ([10]; 2 weeks, 30° C.) was 0.090 % w/w and the “Tazarotene (as % w/w)” value ([10]; 2 weeks, 40° C.) was 0.085 % w/w. For the same molecule, the “Tazarotene (as % w/w)” value ([10]; 6 months, 6° C.) was 0.096 % w/w, the “Tazarotene (as % w/w)” value ([10]; 6 months, 25° C.) was 0.091 % w/w and the “Tazarotene (as % w/w)” value ([10]; 6 months, 30° C.) was 0.088 % w/w. For the same molecule, the “Tazarotene (as % w/w)” value ([10]; 6 months, 40° C.) was “None Detected”, the “Tazarotene (as % w/w)” value ([10]; 90 days, 6° C.) was 0.102 % w/w and the “Tazarotene (as % w/w)” value ([10]; 90 days, 25° C.) was 0.090 % w/w. For the same molecule, the “Tazarotene (as % w/w)” value ([10]; 90 days, 30° C.) was 0.089 % w/w, the “Tazarotene (as % w/w)” value ([10]; 90 days, 40° C.) was 0.081 % w/w and the “Tazarotene (as % w/w)” value ([11]; 2 weeks, first temperature column (head not given; 6° C. by analogy)) was 0.097 % w/w. The “Tazarotene (as % w/w)” value ([11]; 2 weeks, fourth temperature column (head not given; 40° C. by analogy)) was 0.081 % w/w, the “Tazarotene (as % w/w)” value ([11]; 2 weeks, second temperature column (head not given; 25° C. by analogy)) was 0.089 % w/w and the “Tazarotene (as % w/w)” value ([11]; 2 weeks, third temperature column (head not given; 30° C. by analogy)) was 0.086 % w/w. The “Tazarotene (as % w/w)” value ([11]; 6 months, first temperature column (head not given; 6° C. by analogy)) was 0.098 % w/w, the “Tazarotene (as % w/w)” value ([11]; 6 months, fourth temperature column (head not given; 40° C. by analogy)) was “None Detected” and the “Tazarotene (as % w/w)” value ([11]; 6 months, second temperature column (head not given; 25° C. by analogy)) was 0.085 % w/w. The “Tazarotene (as % w/w)” value ([11]; 6 months, third temperature column (head not given; 30° C. by analogy)) was 0.085 % w/w, the “Tazarotene (as % w/w)” value ([11]; 90 days, first temperature column (head not given; 6° C. by analogy)) was 0.100 % w/w and the “Tazarotene (as % w/w)” value ([11]; 90 days, fourth temperature column (head not given; 40° C. by analogy)) was 0.079 % w/w. For the same molecule, the “Tazarotene (as % w/w)” value ([11]; 90 days, second temperature column (head not given; 25° C. by analogy)) was 0.090 % w/w, the “Tazarotene (as % w/w)” value ([11]; 90 days, third temperature column (head not given; 30° C. by analogy)) was 0.087 % w/w and the “Tazarotene (as % w/w)” value ([12]; 60 days, 6° C.) was 0.11 % w/w. For the same molecule, the “Tazarotene (as % w/w)” value ([12]; 60 days, 25° C.) was 0.109 % w/w, the “Tazarotene (as % w/w)” value ([12]; 60 days, 30° C.) was 0.105 % w/w and the “Tazarotene (as % w/w)” value ([12]; 60 days, 40° C.) was 0.107 % w/w. For the same molecule, the “Tazarotene (as % w/w)” value ([12]; 90 days, 6° C.) was 0.107 % w/w, the “Tazarotene (as % w/w)” value ([12]; 90 days, 25° C.) was 0.111 % w/w and the “Tazarotene (as % w/w)” value ([12]; 90 days, 30° C.) was 0.108 % w/w. The “Tazarotene (as % w/w)” value ([12]; 90 days, 40° C.) was 0.116 % w/w.
